Results as given in patent US20250034167A1, “HETEROCYCLIC COMPOUNDS AND METHODS OF USE” (AMGEN INC., priority 2021, published 2025).
Where two headings read alike, the source gives them in different places.

How the values were obtained:
[1] = test system: Phosphorylation of ERK1/2 in AsPC-1 cells; experiment: Phospho-ERK1/2 MSD Assay; type: cell-based
Description: Sixteen hours prior to compound treatment, AsPC-1 cells were seeded in 96-well cell culture plates at a density of 25,000 cells/well and incubated at 37° C., 5% CO2. A compound dose-response titration was diluted in growth media, added to appropriate wells of a cell culture plate, and then incubated at 37° C., 5% CO2 for 2 hours.

[2] = target: His-tagged KRAS G12D protein (Homo sapiens, UniProt P01116, G12D); experiment: biochemical
Sequence of His-tagged KRAS G12D protein (P01116 1-188 isoform P01116-2 G12D): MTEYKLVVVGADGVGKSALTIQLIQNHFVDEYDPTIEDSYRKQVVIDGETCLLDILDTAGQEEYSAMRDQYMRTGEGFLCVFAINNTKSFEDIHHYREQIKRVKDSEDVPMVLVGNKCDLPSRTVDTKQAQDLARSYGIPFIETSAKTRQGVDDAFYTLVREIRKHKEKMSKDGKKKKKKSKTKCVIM
Description: The plate was incubated for 30 minutes at room temperature. Biotinylated KRPep-2d substrate (Amgen) was diluted to nM in Assay Buffer and 2 μL was added to all wells and incubated for 1 hour at room temperature. Detection Reagent (0.4 nM LANCE Eu-W1024 Anti-6×His (Perkin Elmer AD0401), 5 nM streptavidin-d2 (Cisbio 610SADLA)) was prepared in Assay Buffer, then 4 µL was added to the plate and incubated for 1 hour at room temperature.

[3] = Homo sapiens, ASPC1, 2 h, read-out: 2 h p-ERK (AsPC-1 cells), IC50, AsPC-1 cells, 2 h compound treatment
[4] = read-out: 2 h p-ERK (AsPC-1 cells), IC50, AsPC-1 cells, 2 h compound treatment

SMILES	IC50 [1, 3] [µM]	IC50 [2] [µM]	IC50 [1, 4] [µM]
C[C@@]1(O)CCCN(c2nc(OC[C@@]34CCCN3C[C@H](F)C4)nc3c(F)c(-c4cc(O)cc5ccc(F)c(Cl)c45)ncc23)C1 [Example 56, (R)-1-(7-(8-Chloro-7-fluoro-3-hydroxynaphthalen-1-yl)-8-fluoro-2-(((2R,7aS)-2-fluorotetrahydro-1H-pyrrolizin-7a(5H)-yl)methoxy)pyrido[4,3-d]pyrimidin-4-yl)-3-methylpiperidin-3-ol]	0.033	0.001	–
CCc1c(F)ccc2cc(O)cc(-c3ncc4c(N5CC[C@H](O)[C@H](O)C5)nc(OC[C@@]56CCCN5C[C@H](F)C6)nc4c3F)c12 (relative stereo) [Example 100, rel-(3R,4S)-1-(7-(8-Ethyl-7-fluoro-3-hydroxynaphthalen-1-yl)-8-fluoro-2-(((2R,7aS)-2-fluorotetrahydro-1H-pyrrolizin-7a(5H)-yl)methoxy)pyrido[4,3-d]pyrimidin-4-yl)piperidine-3,4-diol]	3.7	0.009	–
CCc1c(F)ccc2cc(O)cc(-c3ncc4c(N5CCC[C@H](S(N)(=O)=O)C5)nc(OC[C@@]56CCCN5C[C@H](F)C6)nc4c3F)c12 [Example 7, (S)-1-(7-(8-Ethyl-7-fluoro-3-hydroxynaphthalen-1-yl)-8-fluoro-2-(((2R,7aS)-2-fluorotetrahydro-1H-pyrrolizin-7a(5H)-yl)methoxy)pyrido[4,3-d]pyrimidin-4-yl)piperidine-3-sulfonamide]	> 10	0.037	–
CCc1c(F)ccc2cc(O)cc(-c3ncc4c(N5CCCC[C@@H](O)C5)nc(OC[C@@]56CCCN5C[C@H](F)C6)nc4c3F)c12 [Example 129, (R)-1-(7-(8-Ethyl-7-fluoro-3-hydroxynaphthalen-1-yl)-8-fluoro-2-(((2R,7aS)-2-fluorotetrahydro-1H-pyrrolizin-7a(5H)-yl)methoxy)pyrido[4,3-d]pyrimidin-4-yl)azepan-3-ol]	0.064	0.001	–
CCc1c(F)ccc2cc(O)cc(-c3ncc4c(N5CCC(C(N)=O)C5)nc(OC[C@@]56CCCN5C[C@H](F)C6)nc4c3F)c12 (stereo partly drawn) [Example 3, 1-(7-(8-Ethyl-7-fluoro-3-hydroxynaphthalen-1-yl)-8-fluoro-2-(((2R,7aS)-2-fluorotetrahydro-1H-pyrrolizin-7a(5H)-yl)methoxy)pyrido[4,3-d]pyrimidin-4-yl)pyrrolidine-3-carboxamide]	> 10	0.009	–
CCc1c(F)ccc2cc(O)cc(-c3ncc4c(N5CC(O)CC(F)(F)C5)nc(OC[C@@]56CCCN5C[C@H](F)C6)nc4c3F)c12 (stereo partly drawn) [Example 118, 1-(7-(8-Ethyl-7-fluoro-3-hydroxynaphthalen-1-yl)-8-fluoro-2-(((2R,7aS)-2-fluorotetrahydro-1H-pyrrolizin-7a(5H)-yl)methoxy)pyrido[4,3-d]pyrimidin-4-yl)-5,5-difluoropiperidin-3-ol]	0.105	0.003	–
CCc1c(F)ccc2cc(O)cc(-c3ncc4c(N5CCCC[C@@H](NC(=O)C(F)F)C5)nc(OC[C@@]56CCCN5C[C@H](F)C6)nc4c3F)c12 [Example 132, N-((R)-1-(7-(8-Ethyl-7-fluoro-3-hydroxynaphthalen-1-yl)-8-fluoro-2-(((2R,7aS)-2-fluorotetrahydro-1H-pyrrolizin-7a(5H)-yl)methoxy)pyrido[4,3-d]pyrimidin-4-yl)azepan-3-yl)-2,2-difluoroacetamide]	0.119	0.001	–
CCc1c(F)ccc2cc(O)cc(-c3ncc4c(N5CC6CCC(C5)C6(C)O)nc(OC[C@@]56CCCN5C[C@H](F)C6)nc4c3F)c12 (stereo partly drawn) [Example 98, 3-(7-(8-Ethyl-7-fluoro-3-hydroxynaphthalen-1-yl)-8-fluoro-2-(((2R,7aS)-2-fluorotetrahydro-1H-pyrrolizin-7a(5H)-yl)methoxy)pyrido[4,3-d]pyrimidin-4-yl)-8-methyl-3-azabicyclo[3.2.1]octan-8-ol]	2.84	0.08	–
CCc1c(F)ccc2cc(O)cc(-c3ncc4c(N5CC6CC(O)C(C6)C5)nc(OC[C@@]56CCCN5C[C@H](F)C6)nc4c3F)c12 (single isomer, unassigned) [Example 24]	–	0.002	0.014
CCc1c(F)ccc2cc(O)cc(-c3ncc4c(N5C[C@@H](O)C[C@H](F)C5)nc(OC[C@@]56CCCN5C[C@H](F)C6)nc4c3F)c12 (racemic) [Example 116, rac-(35,5S)-1-(7-(8-Ethyl-7-fluoro-3-hydroxynaphthalen-1-yl)-8-fluoro-2-(((2R,7aS)-2-fluorotetrahydro-1H-pyrrolizin-7a(5H)-yl)methoxy)pyrido[4,3-d]pyrimidin-4-yl)-5-fluoropiperidin-3-ol]	0.792	0.004	–
CCc1c(F)ccc2cc(O)cc(-c3ncc4c(N5CCCC(O)(C(F)F)C5)nc(OC[C@@]56CCCN5C[C@H](F)C6)nc4c3F)c12 (single isomer, unassigned) [Example 40]	–	0.015	0.571
CCC1CCCc2cc(O)cc(-c3ncc4c(N5CCC[C@@](C)(O)C5)nc(OC[C@@]56CCCN5C[C@H](F)C6)nc4c3F)c21 (single isomer, unassigned) [Example 173]	0.022	0.004	–
CCc1cccc2cc(O)cc(-c3ncc4c(N5CC6CC(O)C(C6)C5)nc(OC[C@@]56CCCN5C[C@H](F)C6)nc4c3F)c12 (single isomer, unassigned) [Example 29]	0.031	0.001	–
CCc1c(F)ccc2cc(O)cc(-c3ncc4c(N5CC(C)CC(C(N)=O)C5)nc(OC[C@@]56CCCN5C[C@H](F)C6)nc4c3F)c12 (single isomer, unassigned) [Example 164]	–	0.003	1.2
C[C@@]1(O)CCCN(c2nc(OC[C@@]34CCCN3C[C@H](F)C4)nc3c(F)c(-c4cc(O)cc5ccccc45)ncc23)C1 [Example 60, (R)-1-(8-Fluoro-2-(((2R,7aS)-2-fluorotetrahydro-1H-pyrrolizin-7a(5H)-yl)methoxy)-7-(3-hydroxynaphthalen-1-yl)pyrido[4,3-d]pyrimidin-4-yl)-3-methylpiperidin-3-ol]	0.33	0.002	–
CCc1c(F)ccc2cc(O)cc(-c3ncc4c(N5CC6CC(=O)C5C6)nc(OC[C@@]56CCCN5C[C@H](F)C6)nc4c3F)c12 (stereo partly drawn) [Example 72, 2-(7-(8-Ethyl-7-fluoro-3-hydroxynaphthalen-1-yl)-8-fluoro-2-(((2R,7aS)-2-fluorotetrahydro-1H-pyrrolizin-7a(5H)-yl)methoxy)pyrido[4,3-d]pyrimidin-4-yl)-2-azabicyclo[2.2.1]heptan-6-one]	3.24	0.034	–
CCc1c(F)ccc2cc(O)cc(-c3ncc4c(N5C[C@H](O)[C@@H](O)C5)nc(OC[C@@]56CCCN5C[C@H](F)C6)nc4c3F)c12 [Example 117, (3S,4S)-1-(7-(8-Ethyl-7-fluoro-3-hydroxynaphthalen-1-yl)-8-fluoro-2-(((2R,7aS)-2-fluorotetrahydro-1H-pyrrolizin-7a(5H)-yl)methoxy)pyrido[4,3-d]pyrimidin-4-yl)pyrrolidine-3,4-diol]	> 10	0.009	–
CCc1c(F)ccc2cc(O)cc(-c3ncc4c(N5CCC(S(N)(=O)=O)CC5)nc(OC[C@@]56CCCN5C[C@H](F)C6)nc4c3F)c12 [Example 85, 1-(7-(8-Ethyl-7-fluoro-3-hydroxynaphthalen-1-yl)-8-fluoro-2-(((2R,7aS)-2-fluorotetrahydro-1H-pyrrolizin-7a(5H)-yl)methoxy)pyrido[4,3-d]pyrimidin-4-yl)piperidine-4-sulfonamide]	> 10	0.037	–
Oc1cc(Cl)c(C2CC2)c(-c2ncc3c(N4CC5CC(O)C(C5)C4)nc(OC[C@@]45CCCN4C[C@H](F)C5)nc3c2F)c1 (single isomer, unassigned) [Example 30]	0.399	0.003	–
CCc1c(F)ccc2cc(O)cc(-c3ncc4c(N5CCCC(O)(C(N)=O)C5)nc(OC[C@@]56CCCN5C[C@H](F)C6)nc4c3F)c12 (stereo partly drawn) [Example 159, 1-(7-(8-Ethyl-7-fluoro-3-hydroxy-naphthalen-1-yl)-8-fluoro-2-(((2R,7aS)-2-fluorotetrahydro-1H-pyrrolizin-7a(5H)-yl)methoxy)pyrido[4,3-d]pyrimidin-4-yl)-3-hydroxypiperidine-3-carboxamide]	3.08	0.002	–
CCc1c(F)ccc2cc(O)cc(-c3ncc4c(N5CC6CC(C#N)C(C6)C5)nc(OC[C@@]56CCCN5C[C@H](F)C6)nc4c3F)c12 (single isomer, unassigned) [Example 146]	–	0.002	0.233
CCc1c(F)ccc2cc(O)cc(-c3ncc4c(N5CCC[C@@H](C(=O)OC)C5)nc(OC[C@@]56CCCN5C[C@H](F)C6)nc4c3F)c12 [Example 126, Methyl (R)-1-(7-(8-ethyl-7-fluoro-3-hydroxynaphthalen-1-yl)-8-fluoro-2-(((2R,7aS)-2-fluorotetrahydro-1H-pyrrolizin-7a(5H)-yl)methoxy)pyrido[4,3-d]pyrimidin-4-yl)piperidine-3-carboxylate]	3.34	0.037	–
CCc1c(F)ccc2cc(O)cc(-c3ncc4c(N5CCC(O)C(F)(F)CC5)nc(OC[C@@]56CCCN5C[C@H](F)C6)nc4c3F)c12 (stereo partly drawn) [Example 120, 1-(7-(8-Ethyl-7-fluoro-3-hydroxynaphthalen-1-yl)-8-fluoro-2-(((2R,7aS)-2-fluorotetrahydro-1H-pyrrolizin-7a(5H)-yl)methoxy)pyrido[4,3-d]pyrimidin-4-yl)-5,5-difluoroazepan-4-ol]	0.222	0.004	–
CCc1c(F)ccc2cc(O)cc(-c3ncc4c(N5CCC[C@@](C)(O)C5)nc(OCC56CCCN5CCC6)nc4c3F)c12 [Example 179, (R)-1-(7-(8-Ethyl-7-fluoro-3-hydroxynaphthalen-1-yl)-8-fluoro-2-((tetrahydro-1H-pyrrolizin-7a(5H)-yl)methoxy)pyrido[4,3-d]pyrimidin-4-yl)-3-methylpiperidin-3-ol]	0.018	0.005	–
